The test system of assay [1] is Fusarium spp. Conditions: two storage trials over two years; cited from earlier work.
The subject of assay [2] is Fusarium wilt. The note with it: treatment of potato tuber; cited from earlier work.
In assay [3] the test system is F. oxysporum. The experiment in a line: Single spore isolate plates of F. oxysporum exposed to 1,4-DMN vapour; colony count and mycelium diameter. The class given is cell-based, Fusarium oxysporum. An excerpt: F. oxysporum was isolated from the surface of potato tuber using the Fusarium selective media Nash-Snider, to which cultures were transferred and maintained on nutritionally complex potato dextrose agar plates. DNA sequencing using selective primers NL1, NL2, ITS1F, and ITS2R confirmed the fungus to be F. oxysporum.
A single spore isolation technique was utilized to record the number and growth response of the spores treated with 1,4-DMN in comparison with the spores treated with water (i.e., the Control). Single spore isolate plates were contained in vacuum sealed chambers and incubated at a constant temperature of about 22° C., while exposed to 7.5 μl of 1,4-DMN via aerosol dispersion for four days. After a day of rest, the spores on each plate were measured and counted.
Potato skin scrapings were cultured on the Fusarium selective media Nash Snider Agar, and later transferred and maintained on nutritionally complex Potato Dextrose Agar (PDA) (Step 1.1 in FIG. 1). DNA isolations were performed on single spore isolates using a Power Soil DNA Isolation Kit (Step 1.2 in FIG. 1). Several primers as shown in FIG. 2 were studied for amplification of Fungal DNA. Fusarium selective primers NL1, NL2, ITS1F, and ITS2 allowed PCR amplification of fungal strains genomically similar to Fusarium. […] The DNA were sequenced, and the sequence data were analyzed using NCBI BLASTn sequence alignment (Step 1.4 in FIG. 1). […] The strain identified as F. oxysporum was then subjected to treatments of DMN (7.5 μl) in specialized airtight bins, and incubated at a constant temperature of about 25° C. for four days (Step 1.5 in FIG. 1). […] Then, colony quantity and mycelium diameter were determined (Step 1.6 in FIG. 1).

Molecules are shown by their SMILES. Entries after “also recorded” stand apart in the source; their conditions may differ.

Turning to `CO/C=C(/C(=O)OC)c1ccccc1Oc1cc(Oc2ccccc2C#N)ncn1` [azoxystrobin], in assay [1], the “efficacy in suppressing tuber infection caused by Fusarium spp. (in words)” value (shortened to “efficacy”) is recorded as “moderately effective”. Turning to `c1ccc2ncccc2c1` [quinoline], the “effect in controlling Fusarium wilt development (in words)” value in assay [2] is on record as “limited effect”.

Consider `N#Cc1c[nH]cc1-c1cccc2c1OC(F)(F)O2` [fludioxonil], for which, in assay [2], the “effect in controlling Fusarium wilt development (in words)” value was “limited effect”.

For the compound `OP(O)O` [Phosphorous acid, phosphorous acid], the “efficacy” value in assay [1] was “moderately effective”.

Take `Cc1ccc(C)c2ccccc12` [1,4-DMN, 1,4-dimethyl naphthalene]: in assay [3] (7.5 μl 1,4-DMN via aerosol dispersion in sealed chamber, four days, about 22° C. / 25° C., Control 9.89 cm), the “Average Colony mycelium diameter” value came to 2.94 cm. In addition, the “Average Colonies per Plate” value in assay [3] (7.5 μl 1,4-DMN, four days, Control 4.05) stood at 4.125. Further, the “Total Colonies” value in assay [3] (7.5 μl 1,4-DMN, four days, Control 162) came to 165. The “mycelium growth of F. oxysporum versus untreated Control (in words)” value in assay [3] (exposure to 1,4-DMN for four days) is recorded as “slower mycelium diameter growth; also recorded: inhibition of mycelium growth”. Consider `OO` [hydrogen peroxide], for which the “efficacy” value in assay [1] is “moderately effective”.

The record behind these values is patent US10842150B2, “Method of controlling Fusarium on potato using lower alkyl naphthalene” (1,4Group, Inc., priority 2018, dated 2020).
